The text below walks through data of patent US20260048022A1, “ENDOTHELIAL DAMAGE AND NANOPARTICLE TARGETING: COMPOSITIONS, PROCESSES, USES” (Nanoprobes, Inc., priority 2022, published 2026).

Where two headings read alike, the source gives them in different places. Where only a bound is given, the exact number is not on record here.

The conditions of series [1]: free drug, literature, cited from earlier work.
Series [2] relates to tumors. In words: Tumor treatment, variation of fibrinogen, drug and VDA amounts. Type of series: in vivo.
Method: One of the components, fibrinogen, was varied from 10 to 150 mg/kg.
In a preferred embodiment, 60 mg PTX/kg and 350 mg fibrinogen/kg are formed into nanoparticles 110-180 nm or 110 to 350 nm in size. Another discovery process requiring extensive experimentation was to find the type of fibrinogen that worked well. […] Various forms and fractions were tested to find a preferable one for tumor targeting.
The test system of series [3] is tumors. The conditions noted are these: Pedley et al, 1996; cited from earlier work.
The conditions of series [4]: Phase III trials; cited from earlier work.
The test system of the next series is DNA. In words: Nanoparticle targeting of DNA. The series is classed as binding. As to conditions: DNA binder incorporated into nanoparticles. As to the method:
(§1) 0.2 mg of acridine yellow G or 0.2 mg of propidium iodide were dissolved in DMSO by heating twice at 80° C. for 2 min. 15 mg albumin was dissolved in 0.4 mL of PBS. While sonicating the albumin solution in an ice bath, the acridine or propidium solutions were slowly over about 10-20 sec injected at the sonicator tip. Sonication was continued for another minute. Clear colored solutions were obtained. Both were filtered through a 0.45 μm filter, all passing through. However, if albumin was not used, the solution containing acridine all was retained by the filter, whereas the propidium solution passed through. Both were purified with 50 kD Amicon centrifugal filters with PBS washing.
(§2) 20 mg of albumin was dissolved in 0.4 mL water and mixed with 0.5 mg of Dox making a clear colored solution. Under sonication and in an ice-water bath, 80 ul of 0.1 M NaOH was slowly injected near the sonicator tip. Next, 10 ul of 8% glutaraldehyde (in water) was added with an additional 5 minutes of sonication producing a clear solution. After 30 min, 30 ul of a 3 M solution of ethanolamine hydrochloride was added. After 30 min, the construct was purified on a 50 kDa centrifugal filter. […] After resuspension of the retentate in PBS the size of the nanoparticles was measured to be 117 nm by dynamic light scattering.

Series [5] is described as follows: Payload retention / incorporation in protein nanoparticles. The series is classed as physicochemical. As to conditions: PBS washing. On the procedure:
as §1
as §2, with “scattering. […]” for “scattering.”

Series [6] has as its system advanced non-squamous non-small-cell lung cancer. As to conditions: Phase II, with carboplatin, paclitaxel, and bevacizumab; cited from earlier work.

Regarding `CC(=O)O[C@H]1C(=O)[C@@]2(C)[C@H]([C@H](OC(=O)c3ccccc3)[C@]3(O)C[C@H](OC(=O)[C@H](O)[C@@H](NC(=O)c4ccccc4)c4ccccc4)C(C)=C1C3(C)C)[C@]1(OC(C)=O)CO[C@@H]1C[C@@H]2O` [paclitaxel], the tolerability entry (mouse, in vivo, 90 mg/kg) was “well-tolerated”. Also, the “multiple of the maximum tolerated dose that can be safely administered” value (using the disclosed method) is on record as around 4 times. The “maximum tolerated dose (reported / published)” value in series [1] is recorded as 10 mg/kg; in series [1] (listed as PTX) it was 25 mg/kg. Also, the treatment result with tumors [2] (60-90 mg PTX/kg in the nanoparticle) is “excellent results”.

Consider `Cc1ccc2c(=O)c3cccc(CC(=O)O)c3oc2c1C` [DMXAA], for which, in the series with tumors [3], the “ineffective dose (current teaching)” value is on record as “less than 20 mg/kg” and the “useful dose (current teaching)” value is given as 27.5 mg/kg. Moreover, the patient survival entry in series [4] is reported as “lack of patient gain in survival”. The “dose leading to excessive toxicity” value (mouse, in vivo) is recorded as above 20 mg/kg. In addition, the “dose close to optimal” value with tumors [2] (DMXAA as vascular disrupting agent with nanoparticles) was around 18 mg/kg.

In the case of `CC[N+](C)(CC)CCC[n+]1c(-c2ccccc2)c2cc(N)ccc2c2ccc(N)cc21` [propidium, propidium iodide], in the series with DNA, the “targeting of necroses / free DNA when included in a nanoparticle” value is “failed”. In series [5], the “retention with albumin on 50 kD Amicon centrifugal filters (stable complex)” value was “came through in the filtrate”.

In the case of `Cc1cc2cc3cc(C)c(N)cc3nc2cc1N` [acridine yellow G], the “targeting of necroses / free DNA when included in a nanoparticle” value in the series with DNA is “found to target the nanoparticles to free DNA”. In addition, in series [5], the “retention with albumin on 50 kD Amicon centrifugal filters (stable complex)” value is listed as “remained in the retentate”.

Take `COc1ccc(/C=C\c2cc(OC)c(OC)c(OC)c2)cc1OP(=O)(O)O.NC(CO)(CO)CO` [CA4P, fosbretabulin tromethamine]: in series [6], the patient benefit result is given as “little patient benefit”.
